Laboratory results reported in US8273754B2, “Substituted 1H-pyrazolo[3,4-D]pyrimidine-6-amine compounds” (ArQule, Inc., priority 2008, dated 2012).
Where two headings read alike, the source gives them in different places.

Tested on: cancer cells
Experiment: MTS cell growth inhibition assay (72 hours)
Type: cell-based
Procedure, shortened: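 Cells in DMEM with 1% FBS, seeded 18 h, then compound-treated 72 h at 37 °C. Viability by MTS/PMS for 4 h, formazan absorbance at 492 nm; IC50 taken as concentration giving 50% absorbance drop, activity banded by percent inhibition.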

[1] = Homo sapiens, DLD-1, 72 h, DLD-1 cells, read-out: DLD-1 MTS 72 hr at 10 μM
[2] = Homo sapiens, KATO III, 72 h, KATO III cells, read-out: KATO III MTS 72 hr at 10 μM
[3] = Homo sapiens, MDA-MB-231, 72 h, MDA-MB-231 cells, read-out: MDA-MB-231 MTS 72 hr at 10 μM
[4] = Homo sapiens, NCI-H1299, 72 h, NCI-H1299 cells, read-out: NCI-H1299 MTS 72 hr at 10 μM
[5] = PaCa-2, 72 h, PACA-2 cells, read-out: PACA-2 MTS 72 hr at 10 μM

CCc1ccc(S(=O)(=O)N2CCC(Nc3nc(N)nc4[nH]ncc34)Cc3ccccc32)cc1 (stereo not drawn) [Compound 172, N4-{1-[(4-ethylphenyl)sulfonyl]-2,3,4,5-tetrahydro-1H-1-benzazepin-4-yl}-1H-pyrazolo[3,4-d]pyrimidine-4,6-diamine] was tested, and the inhibition at 10 µM [1] was < 50%, the inhibition at 10 µM [2] was < 50% and the inhibition at 10 µM [3] was < 50%. For the same molecule, the inhibition at 10 µM [4] was < 50% and the inhibition at 10 µM [5] was < 50%.
COc1cccc(S(=O)(=O)N2CCC(Nc3nc(N)nc4[nH]ncc34)Cc3ccccc32)c1 (stereo not drawn) [Compound 175, N4-{1-[(3-methoxyphenyl)sulfonyl]-2,3,4,5-tetrahydro-1H-1-benzazepin-4-yl}-1H-pyrazolo[3,4-d]pyrimidine-4,6-diamine] was tested, and the inhibition at 10 µM [1] was < 50%, the inhibition at 10 µM [2] was < 50% and the inhibition at 10 µM [3] was < 50%. The inhibition at 10 µM [4] was < 50% and the inhibition at 10 µM [5] was < 50%.
With Nc1nc(NC2Cc3ccccc3N(S(=O)(=O)c3cccc(NC(=O)Nc4ccc5ccccc5c4)c3)C2)c2cn[nH]c2n1 (stereo not drawn) [Compound 212, 1-[3-({3-[(6-amino-1H-pyrazolo[3,4-d]pyrimidin-4-yl)amino]-3,4-dihydroquinolin-1(2H)-yl}sulfonyl)phenyl]-3-(2-naphthyl)urea] the inhibition at 10 µM [1] was > 79%, the inhibition at 10 µM [2] was > 79% and the inhibition at 10 µM [3] was > 79%. The inhibition at 10 µM [4] was > 79% and the inhibition at 10 µM [5] was > 79%.
Nc1nc(NC2Cc3ccccc3N(Cc3cccc(Oc4ccc(Cl)cc4)c3)C2)c2cn[nH]c2n1 (stereo not drawn) [Compound 164, N4-{1-[3-(4-chlorophenoxy)benzyl]-1,2,3,4-tetrahydroquinolin-3-yl}-1H-pyrazolo[3,4-d]pyrimidine-4,6-diamine] was tested, and the inhibition at 10 µM [1] was 50 to 79%, the inhibition at 10 µM [2] was 50 to 79% and the inhibition at 10 µM [3] was < 50%. The inhibition at 10 µM [4] was < 50% and the inhibition at 10 µM [5] was < 50%.
With Nc1nc(NC2Cc3ccccc3N(S(=O)(=O)c3cccc(OC(F)(F)F)c3)C2)c2cn[nH]c2n1 (stereo not drawn) [Compound 70, N4-(1-(3-(trifluoromethoxy)phenylsulfonyl)-1,2,3,4-tetrahydroquinolin-3-yl)-1H-pyrazolo[3,4-d]pyrimidine-4,6-diamine] the inhibition at 10 µM [1] was < 50%, the inhibition at 10 µM [2] was 50 to 79% and the inhibition at 10 µM [3] was < 50%. The inhibition at 10 µM [4] was < 50% and the inhibition at 10 µM [5] was < 50%.
With Nc1nc(NC2CCN(S(=O)(=O)c3ccc(C(F)(F)F)cc3)c3ccccc3C2)c2cn[nH]c2n1 (stereo not drawn) [Compound 186, N4-(1-{[4-(trifluoromethyl)phenyl]sulfonyl}-2,3,4,5-tetrahydro-1H-1-benzazepin-4-yl)-1H-pyrazolo[3,4-d]pyrimidine-4,6-diamine] the inhibition at 10 µM [1] was < 50%, the inhibition at 10 µM [2] was < 50% and the inhibition at 10 µM [3] was < 50%. The inhibition at 10 µM [4] was < 50% and the inhibition at 10 µM [5] was < 50%.
In the case of CC(C)(C)CC(=O)N1CC(Nc2nc(N)nc3[nH]ncc23)Cc2ccccc21 (stereo not drawn) [Compound 94, 1-(3-(6-amino-1H-pyrazolo[3,4-d]pyrimidin-4-ylamino)-3,4-dihydroquinolin-1(2H)-yl)-3,3-dimethylbutan-1-one], the inhibition at 10 µM [1] is reported as < 50%, the inhibition at 10 µM [2] is reported as < 50% and the inhibition at 10 µM [3] is reported as < 50%. The inhibition at 10 µM [4] was < 50% and the inhibition at 10 µM [5] was < 50%.
With Cc1cccc(NC(=O)Nc2ccc(S(=O)(=O)N3CC(Nc4nc(N)nc5[nH]ncc45)Cc4ccccc43)cc2)c1 (stereo not drawn) [Compound 195, 1-[4-({3-[(6-amino-1H-pyrazolo[3,4-d]pyrimidin-4-yl)amino]-3,4-dihydroquinolin-1(2H)-yl}sulfonyl)phenyl]-3-(3-methylphenyl)urea] the inhibition at 10 µM [1] was > 79%, the inhibition at 10 µM [2] was > 79% and the inhibition at 10 µM [3] was > 79%. The inhibition at 10 µM [4] was < 50% and the inhibition at 10 µM [5] was > 79%.
In the case of Nc1nc(NC2Cc3ccccc3N(S(=O)(=O)c3cccc(NC(=O)Nc4cccc(Cl)c4)c3)C2)c2cn[nH]c2n1 (stereo not drawn) [Compound 201, 1-[3-({3-[(6-amino-1H-pyrazolo[3,4-d]pyrimidin-4-yl)amino]-3,4-dihydroquinolin-1(2H)-yl}sulfonyl)phenyl]-3-(3-chlorophenyl)urea], the inhibition at 10 µM [1] is reported as > 79%, the inhibition at 10 µM [2] is reported as > 79% and the inhibition at 10 µM [3] is reported as > 79%. The inhibition at 10 µM [4] was > 79% and the inhibition at 10 µM [5] was > 79%.
